Data taken from US6083931A, “Method of inhibiting cancer metastasis” (NGK Insulators, Ltd., priority 1997, dated 2000).
Where a name gives a salt, the structure may show the parent alone.

Experiments:
AH66F cancer cells = test: Life-prolonging effect upon rats with AH66F cancer cells; assay type: in vivo, rat; settings: for Survival dates: peritoneally administered, control 7.3 ± 0.3; for Life-prolonging percentage: vs control group
Protocol: AH66F cancer cells (1×10^6 cells) were each peritoneally administered to Donryu male rats (six week age, 100-120 g, each group--6 rats). Immediately thereafter, a solution of sialic acid (dosage: 10 mg/kg and 100 mg/kg) or physiological saline solution was peritoneally administered in a dosage of 0.5 ml (control group). Then, after sialic acid or physiological saline solution was peritoneally administered over 2 days, survival dates of the rats were observed.
The life-prolonging percentage was calculated according to the following formula. Life-prolonging percentage=[(survival dates of treated group)-(survival dates of control group)/(survival dates of control group]×100

[1] = system: rat AH66F cells adhering to mesentery cells (M-cells); test: Inhibition of adhesion of rat AH66F cancer cells to rat mesentery cells (M-cells); assay type: cell-based; settings: average over four wells
Excerpt: The present inventors employed, as a model system for the measurement of the metastasis-inhibiting action upon the cancer cells, a system in which rat ascites hepatoma as extremely malignant cancer cells were adhered to mesenteries of a rat. They also employed a cell system as a simpler technique. As the former cancer cells, AH66F-cells were used, whereas M-cells were used as the latter mesentery cells.
(§1) Mesentery cells (M-cells) originating from a rat was cultivated inside a cell-cultivating well plate with a Dulbecco's Modification of Eagle's Medium (DMEM) containing 5% fetal calf serum (FCS). When the cells spread over the entire face of the well, the cells were washed with DMEM containing no FC3. Further, the cells were cultivated with DMEM containing 10 μg/ml or 100 μg/ml of sialic acid at 37° C. After 45 minutes passed, the well was washed with DMEM, and rat AH66F cells ([…]) and sialic acid at a concentration shown in FIG. 1 were added together with DMEM. […] Then, the number of the cells was measured by a haemacytometer under a microscope (the number of non-adhered cells).
(§2) As a control, only cancer cells were cultivated, the same operations as mentioned above were effected, and the number of the cells were measured (the number of cells in control).
(§3) The adhesive rate (%) of the cancer cells was calculated according to the following calculating formula. […]

[2] = system: AH66F cells adhering to M-cells; test: Inhibition of adhesion of AH66F cells to M-cells under coexistence of anti-LFA-1 antibody; assay type: cell-based, rat
Protocol: as §1, with “DMEM. The mixture was cultivated at 37° C. for one hour. After the cultivation, the mixture was stirred for 30 second, and a cultivation supernatant liquid was taken into a sample tube. Into each well was added 200 μl of fresh DMEM, and washing was similarly carried out under stirring for 15 seconds.” for “DMEM.”
as §2, §3

[3] = Acute toxicity test, intravenous, male Wister-strain rats; settings: rat, in vivo, intravenous administration, sodium salts, pH 7.0

SMILES	life-prolonging effect, times that of control group (AH66F cancer cells; 10 mg/Kg)	Survival dates (AH66F cancer cells; 10 mg/Kg × 3 days)	Life-prolonging percentage (AH66F cancer cells; 10 mg/Kg × 3 days)	life-prolonging effect, times that of control group (AH66F cancer cells; 100 mg/Kg)	Survival dates (AH66F cancer cells; 100 mg/Kg × 3 days)	Life-prolonging percentage (AH66F cancer cells; 100 mg/Kg × 3 days)	inhibition at 10 µg/mL ([1]; 10 μg/ml sialic acid)	inhibition at 100 µg/mL ([1]; 100 μg/ml sialic acid)	inhibition at 100 µg/mL ([2]; Rattus norvegicus, 100 μg/ml sialic acid under coexistence of 10 μg/ml anti-LFA-1 antibody)	synergistic effect on adhesion inhibition (in words) ([2]; sialic acid with anti-LFA-1 antibody)	LD50 [3]
CC(=O)N[C@H]1[C@H]([C@H](O)[C@H](O)CO)OC(O)(C(=O)O)C[C@@H]1O (stereo partly drawn) [sialic acid, N-acetylneuraminic acid]	1.6 times	11.5 ± 0.4	58%	1.8 times	13.4 ± 0.4	84%	27%	31%	7%	synergistic effect	–
CC(=O)N[C@H]1[C@H]([C@H](O)[C@H](O)CO)OC(O)(C(=O)O)C[C@@H]1O (stereo partly drawn) [sodium salts of sialic acid]	–	–	–	–	–	–	–	–	–	–	≥ 2000 mg/kg
CC(=O)NC1C(O)CC(OC(CO)C(O)C2OC(OC(CO)C(O)C3OC(O)(C(=O)O)CC(O)C3NC(C)=O)(C(=O)O)CC(O)C2NC(C)=O)(C(=O)O)OC1C(O)C(O)CO (stereo not drawn) [trimer]	–	–	–	–	–	–	–	–	–	–	≥ 2000 mg/kg
